# Activity calls are given as the source filed them.
# Assays:
# [1] = Luminescence Cell-Based Dose Retest to Confirm Inhibitors of Cancer Stem Cells. [Related pubchem assays (depositor defined):AID2717, AID2721]; assay type: functional; settings: Homo sapiens
# [2] = biological target: T1, Heat shock factor protein 1 (Mus musculus, UniProt P38532); assay: HSF1 potentiators in luciferase reporter cells, confirmation, cell-based, NIH3T3, luminescence, dose retest (AID 435004); assay type: functional;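 further: stress induced by proteasome inhibitor MG132 added 30 min after compound; luciferase reporter driven by HSF1 response element in NIH3T3 cells; actives raise luminescence as potentiators of the MG132 stress response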
# T1 sequence (P38532 whole entry): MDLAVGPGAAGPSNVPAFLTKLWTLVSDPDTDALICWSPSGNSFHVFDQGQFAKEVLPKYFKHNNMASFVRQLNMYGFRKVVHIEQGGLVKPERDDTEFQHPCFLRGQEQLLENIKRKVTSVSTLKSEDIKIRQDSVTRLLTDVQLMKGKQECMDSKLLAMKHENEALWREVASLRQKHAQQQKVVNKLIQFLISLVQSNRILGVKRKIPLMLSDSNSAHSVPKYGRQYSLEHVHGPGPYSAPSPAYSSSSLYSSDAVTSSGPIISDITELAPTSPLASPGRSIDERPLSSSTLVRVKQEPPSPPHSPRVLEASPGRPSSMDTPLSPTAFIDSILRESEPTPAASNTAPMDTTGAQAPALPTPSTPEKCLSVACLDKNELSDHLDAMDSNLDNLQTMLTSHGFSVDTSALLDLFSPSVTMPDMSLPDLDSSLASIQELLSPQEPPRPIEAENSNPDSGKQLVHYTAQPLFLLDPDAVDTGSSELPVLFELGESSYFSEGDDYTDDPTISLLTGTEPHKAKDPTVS
# [3] = biological target: Luciferin 4-monooxygenase (Photinus pyralis, UniProt P08659); assay: firefly luciferase enzyme inhibitors, dose response, biochemical, luminescence (AID 1891)
# Sequence of Luciferin 4-monooxygenase (P08659 whole entry): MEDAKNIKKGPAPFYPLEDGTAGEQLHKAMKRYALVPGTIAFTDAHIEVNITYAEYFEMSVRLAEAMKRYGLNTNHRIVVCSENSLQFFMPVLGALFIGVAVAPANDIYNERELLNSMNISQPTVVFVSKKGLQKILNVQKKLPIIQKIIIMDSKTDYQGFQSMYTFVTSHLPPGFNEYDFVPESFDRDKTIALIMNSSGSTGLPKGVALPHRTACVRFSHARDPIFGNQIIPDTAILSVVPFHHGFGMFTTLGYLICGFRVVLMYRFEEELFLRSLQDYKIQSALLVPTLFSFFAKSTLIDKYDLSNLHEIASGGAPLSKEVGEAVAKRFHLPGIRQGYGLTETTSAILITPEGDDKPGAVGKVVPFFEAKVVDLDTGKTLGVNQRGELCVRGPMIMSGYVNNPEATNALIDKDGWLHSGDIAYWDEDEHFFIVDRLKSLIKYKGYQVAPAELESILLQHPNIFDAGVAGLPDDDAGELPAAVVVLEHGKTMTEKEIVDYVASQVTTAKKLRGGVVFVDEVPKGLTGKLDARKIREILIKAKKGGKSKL
# [4] = Luminescence Cell-Based Dose Confirmation HTS to Identify Inhibitors of Platelet Dense Granule Release. [Related pubchem assays: 1663 (Primary HTS), 1678 (Summary of Project)]; assay type: functional
# Cytochrome P450 2D6 = Cytochrome P450 2D6 (Homo sapiens, UniProt P10635);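 further: CYP2D6 member of a cytochrome P450 panel assay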
# Sequence of Cytochrome P450 2D6 (P10635 whole entry): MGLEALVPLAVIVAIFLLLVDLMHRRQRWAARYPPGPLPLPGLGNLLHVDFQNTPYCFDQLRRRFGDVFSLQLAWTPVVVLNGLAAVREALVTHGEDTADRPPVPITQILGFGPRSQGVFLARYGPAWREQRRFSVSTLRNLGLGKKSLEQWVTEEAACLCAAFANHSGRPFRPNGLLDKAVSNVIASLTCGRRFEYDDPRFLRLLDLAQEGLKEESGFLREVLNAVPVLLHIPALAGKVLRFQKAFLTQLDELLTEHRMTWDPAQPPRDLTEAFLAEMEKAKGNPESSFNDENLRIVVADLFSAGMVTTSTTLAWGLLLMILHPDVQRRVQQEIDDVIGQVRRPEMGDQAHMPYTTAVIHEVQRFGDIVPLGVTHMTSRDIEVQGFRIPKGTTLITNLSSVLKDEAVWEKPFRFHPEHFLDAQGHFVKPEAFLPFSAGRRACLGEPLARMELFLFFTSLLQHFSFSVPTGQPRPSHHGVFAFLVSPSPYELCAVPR
# Cytochrome P450 3A4 = Cytochrome P450 3A4 (Homo sapiens, UniProt P08684);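 further: CYP3A4 tested as one member of a cytochrome P450 panel screen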
# Sequence of Cytochrome P450 3A4 (P08684 whole entry): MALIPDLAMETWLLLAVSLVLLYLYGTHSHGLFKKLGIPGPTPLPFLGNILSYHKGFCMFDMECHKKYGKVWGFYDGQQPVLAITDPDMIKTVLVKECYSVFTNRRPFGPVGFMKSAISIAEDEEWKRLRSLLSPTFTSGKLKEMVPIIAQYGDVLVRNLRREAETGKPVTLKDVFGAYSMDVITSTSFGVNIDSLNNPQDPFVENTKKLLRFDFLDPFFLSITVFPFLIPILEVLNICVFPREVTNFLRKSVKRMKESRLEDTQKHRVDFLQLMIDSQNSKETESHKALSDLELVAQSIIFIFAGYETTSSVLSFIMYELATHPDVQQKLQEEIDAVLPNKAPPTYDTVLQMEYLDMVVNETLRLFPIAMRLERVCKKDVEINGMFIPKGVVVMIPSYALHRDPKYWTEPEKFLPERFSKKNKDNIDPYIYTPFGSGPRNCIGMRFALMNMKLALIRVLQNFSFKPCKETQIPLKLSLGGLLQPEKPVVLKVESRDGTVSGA
# Cytochrome P450 2C19 = Cytochrome P450 2C19 (Homo sapiens, UniProt P33261); assay: Cytochrome panel assay with activity outcomes. Panel member name: p450-cyp2c19 Compounds with AC50 equal or less than 10 uM are considered active; assay type: functional; settings: read-out: AC50
# Sequence of Cytochrome P450 2C19 (P33261 whole entry): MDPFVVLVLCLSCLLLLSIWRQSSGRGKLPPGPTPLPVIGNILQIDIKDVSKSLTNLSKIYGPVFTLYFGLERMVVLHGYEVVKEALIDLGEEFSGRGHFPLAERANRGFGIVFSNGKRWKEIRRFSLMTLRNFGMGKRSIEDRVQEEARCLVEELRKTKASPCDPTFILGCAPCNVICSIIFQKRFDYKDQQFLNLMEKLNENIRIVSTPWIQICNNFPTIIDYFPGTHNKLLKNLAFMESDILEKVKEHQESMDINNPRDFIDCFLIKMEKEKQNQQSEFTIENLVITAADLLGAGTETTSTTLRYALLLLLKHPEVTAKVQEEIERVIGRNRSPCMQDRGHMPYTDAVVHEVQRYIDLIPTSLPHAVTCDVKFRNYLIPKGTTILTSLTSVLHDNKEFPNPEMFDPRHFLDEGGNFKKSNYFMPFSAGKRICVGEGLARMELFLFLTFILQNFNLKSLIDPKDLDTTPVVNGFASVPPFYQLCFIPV
# Cytochrome P450 2C9 = Cytochrome P450 2C9 (Homo sapiens, UniProt P11712)
# Sequence of Cytochrome P450 2C9 (P11712 whole entry): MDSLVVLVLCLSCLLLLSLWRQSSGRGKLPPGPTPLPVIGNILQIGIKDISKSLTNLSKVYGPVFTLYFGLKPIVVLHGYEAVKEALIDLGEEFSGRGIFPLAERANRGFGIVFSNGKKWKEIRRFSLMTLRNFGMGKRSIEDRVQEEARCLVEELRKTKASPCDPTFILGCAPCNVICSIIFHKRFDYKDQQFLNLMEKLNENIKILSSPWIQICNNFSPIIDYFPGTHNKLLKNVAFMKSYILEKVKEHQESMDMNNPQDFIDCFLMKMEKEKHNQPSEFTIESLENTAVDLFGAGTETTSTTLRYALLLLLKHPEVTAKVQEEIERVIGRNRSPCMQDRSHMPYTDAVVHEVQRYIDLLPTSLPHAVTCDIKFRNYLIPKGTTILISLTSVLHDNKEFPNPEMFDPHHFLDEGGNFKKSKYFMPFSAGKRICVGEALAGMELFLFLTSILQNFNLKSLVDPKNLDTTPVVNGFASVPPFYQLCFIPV
# Cytochrome P450 1A2 = biological target: T2, Cytochrome P450 1A2 (Homo sapiens, UniProt P05177);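 further: PubChem cytochrome P450 panel assay, CYP1A2 panel member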
# T2 sequence (P05177 whole entry): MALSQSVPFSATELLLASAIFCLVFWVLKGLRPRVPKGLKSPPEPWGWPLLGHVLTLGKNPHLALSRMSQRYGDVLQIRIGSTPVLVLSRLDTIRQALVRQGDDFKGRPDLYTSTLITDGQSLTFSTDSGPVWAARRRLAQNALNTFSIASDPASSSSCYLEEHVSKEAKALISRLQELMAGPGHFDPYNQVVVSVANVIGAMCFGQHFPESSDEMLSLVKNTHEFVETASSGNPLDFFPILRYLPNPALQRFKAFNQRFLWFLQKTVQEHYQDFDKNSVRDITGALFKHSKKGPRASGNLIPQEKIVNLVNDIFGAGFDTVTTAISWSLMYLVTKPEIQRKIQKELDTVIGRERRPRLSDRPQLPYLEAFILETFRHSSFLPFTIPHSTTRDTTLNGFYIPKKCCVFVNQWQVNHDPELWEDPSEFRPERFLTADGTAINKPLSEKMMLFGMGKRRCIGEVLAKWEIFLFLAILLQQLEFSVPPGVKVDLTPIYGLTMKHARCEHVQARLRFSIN
# [5] = biological target: FAD-linked sulfhydryl oxidase ALR (Homo sapiens, UniProt P55789); assay: inhibitors of human ALR sulfhydryl oxidase, dose response, biochemical, H2O2 detection, luminescence, cherry-pick (AID 493248)
# Sequence of FAD-linked sulfhydryl oxidase ALR (P55789 whole entry): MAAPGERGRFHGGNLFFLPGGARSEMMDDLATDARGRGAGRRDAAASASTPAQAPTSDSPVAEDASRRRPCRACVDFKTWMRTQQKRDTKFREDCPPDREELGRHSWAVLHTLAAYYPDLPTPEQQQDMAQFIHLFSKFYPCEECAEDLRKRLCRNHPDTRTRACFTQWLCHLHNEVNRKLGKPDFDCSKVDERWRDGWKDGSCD
# [6] = biological target: T3, Corticotropin-releasing factor receptor 2/Corticotropin-releasing factor-binding protein (Homo sapiens, UniProt P24387+Q13324); assay: activators of CRF receptor 2 with binding protein – uHTS hits, confirmation (AID 602473); assay type: functional; settings: read-out: EC50_Mean
# T3 sequence (Q13324 whole entry): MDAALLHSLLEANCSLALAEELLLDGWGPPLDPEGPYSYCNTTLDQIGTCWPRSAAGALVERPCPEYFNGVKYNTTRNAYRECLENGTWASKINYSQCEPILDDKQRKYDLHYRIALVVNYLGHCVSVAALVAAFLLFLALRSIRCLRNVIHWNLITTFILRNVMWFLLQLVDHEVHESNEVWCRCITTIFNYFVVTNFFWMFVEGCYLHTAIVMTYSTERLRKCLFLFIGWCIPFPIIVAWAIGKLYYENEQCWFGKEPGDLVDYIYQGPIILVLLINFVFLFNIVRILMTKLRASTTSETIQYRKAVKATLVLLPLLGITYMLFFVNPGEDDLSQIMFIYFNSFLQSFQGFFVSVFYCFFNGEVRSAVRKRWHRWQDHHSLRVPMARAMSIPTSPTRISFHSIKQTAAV
# T3 sequence (P24387 whole entry): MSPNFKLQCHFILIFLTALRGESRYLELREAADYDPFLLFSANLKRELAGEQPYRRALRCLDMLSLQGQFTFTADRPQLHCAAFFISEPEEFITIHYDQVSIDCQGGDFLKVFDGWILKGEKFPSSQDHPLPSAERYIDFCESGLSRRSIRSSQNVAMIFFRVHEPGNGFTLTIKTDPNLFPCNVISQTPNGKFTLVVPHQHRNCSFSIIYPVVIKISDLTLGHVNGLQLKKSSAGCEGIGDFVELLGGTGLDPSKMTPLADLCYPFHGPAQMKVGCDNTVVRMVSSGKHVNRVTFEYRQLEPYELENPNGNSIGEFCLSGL
compound,measurement,setting,value
CCOC(=O)c1c(C)nc2c(c1-c1ccc(Cl)cc1)C(=O)CC(C)(C)C2,AC50,[1],12.2 µM (active)
CCOC(=O)c1cc(NC(=O)COc2ccc([N+](=O)[O-])cc2)cc(C(=O)OCC)c1,EC50,[2],> 260 µM (inactive)
Cc1ccc(S(=O)(=O)N2CCN(C(=O)CSc3ccc(Cl)cc3)CC2)cc1,EC50,[2],> 260 µM (inactive)
CCOc1ccc(CN(CCO)CCO)cc1C(=O)OC,EC50,[3],> 112 µM (not active)
same,EC50,[4],> 112 µM (not active)
CCc1cc2c(nc1CC)CCN(CC/C(C)=N/OC)C2,AC50,Cytochrome P450 2D6,3.16 µM (inconclusive)
same,AC50,Cytochrome P450 3A4,3.16 µM (inconclusive)
O=S(=O)(Nc1ccc(-c2ccc3nncn3n2)cc1)c1cc(F)ccc1F,EC50,[3],> 112 µM (not active)
same,EC50,[4],> 112 µM (not active)
CC(C)(Oc1ccc(Cl)cc1)C(=O)Nc1ccc2oc(-c3ccncc3)nc2c1,EC50,[2],> 260 µM (inactive)
Cc1ccc(Cl)cc1NC(=O)c1cc(S(=O)(=O)N2CCOCC2)cn1C,EC50,[3],> 112 µM (not active)
same,EC50,[4],> 112 µM (not active)
CCOC(=O)C(C)n1cnc2c(nnn2-c2ccc(F)cc2)c1=O (configuration not stated),EC50,[3],> 112 µM (not active)
same,EC50,[4],> 112 µM (not active)
O=C(Nc1ccc(O)c(-c2nc3ccccc3o2)c1)C1(c2ccc(Cl)cc2)CCCC1,EC50,[2],> 260 µM (inactive)
Cc1cccc(C)c1NS(=O)(=O)c1ccc(NC(=O)c2ccc(Cl)c([N+](=O)[O-])c2)cc1,AC50,[1],1.46 µM (active)
c1ccc2c(C3=NN=C(NC4CC4)SC3)c[nH]c2c1,EC50,[3],> 112 µM (not active)
same,EC50,[4],20.2 µM (active)
same,EC50,[2],> 260 µM (inactive)
COc1ccc(-c2cc(CCCC(=O)NCCc3ccc(OC)cc3OC)no2)cc1,AC50,Cytochrome P450 2D6,1.12 µM (active)
same,AC50,Cytochrome P450 2C19,1.41 µM (active)
same,AC50,Cytochrome P450 2C9,0.562 µM (active)
same,AC50,Cytochrome P450 1A2,0.562 µM (active)
same,EC50,[2],> 260 µM (inactive)
CCCn1c(=N)n(CC(=O)c2ccco2)c2ccccc21,AC50,Cytochrome P450 3A4,35.5 µM (inconclusive)
same,AC50,Cytochrome P450 1A2,10 µM (inconclusive)
CCc1cc(C(=O)c2ccc(OC)cc2)c(N)s1,EC50,[2],> 260 µM (inactive)
Cc1cc(O)nc2c(C)cc(S(=O)(=O)Nc3ccc(O)cc3)cc12,AC50,[5],1.3 µM (active)
CC(C)[C@H](NC(=O)OC(C)(C)C)c1nnc(SCC(=O)Nc2ccc(Br)cc2)o1,EC50,[2],98.6 µM (active)
O=C(Nc1nccs1)c1ccc(COc2ccccc2Cl)o1,AC50,[1],2.45 µM (active)
O=S(=O)(NC1CCCC1)c1ccc(S(=O)(=O)NC2CCCC2)cc1,EC50,[6],> 53 µM (inactive)
COc1ccccc1Nc1nc(NCc2ccco2)c2ccccc2n1,EC50,[3],> 112 µM (not active)
same,EC50,[4],> 112 µM (not active)
O=C1CC(c2ccc(F)cc2)CC2=Nc3ccccc3NC=C12 (configuration not stated),AC50,[1],3.58 µM (active)
CCc1ccc(NC(=O)CN2C(=O)CSC2=O)cc1,AC50,[5],1.2 µM (active)
NC(=NO)c1cn(Cc2ccccc2Cl)c2ccccc12,AC50,[5],0.488 µM (active)
N#Cc1cccc(NC(=O)N2CC[C@@]3(CCCN(C(=O)c4ccco4)C3)C2)c1,AC50,Cytochrome P450 3A4,20 µM (inconclusive)

# — ChEMBL document CHEMBL1201862, “PubChem BioAssay data set” (2004)
